This note sets out measurements from patent publication US5212163A, “Compounds” (Beecham Group p.l.c., priority 1989, dated 1993).

This assay has as its target rabbit bone collagenase (Oryctolagus cuniculus, UniProt P13943). The experiment in a line: biochemical. As for the experimental part:
The test is performed essentially as in Cawston and Barrett Anal. Biochem. 99, 340-345 (1979). Compounds for testing are dissolved in methanol and added to purified rabbit bone collagenase or human collagenase purified from culture supernatants from the human lung fibroblast cell line, WI-38, diluted in a suitable aqueous buffer. After a 5 min pre-incubation at 37° C., the assay tubes are cooled to 4° C. and ^14 C-acetylated rat skin Type I collagen is added. The assay tubes are incubated at 37° C. overnight. The ^14 C-collagen forms insoluble fibrils which are the substrate for the enzyme.
To terminate the assay, the assay tubes are spun at 12000 rpm for 25 min. Undigested ^14 C-collagen remains as insoluble fibrils and is pelleted, while digested ^14 C-collagen remains as soluble peptides in the supernatant. A sample of the supernatant is taken for liquid scintillation counting.

rabbit bone collagenase, sequence (P13943 99-468): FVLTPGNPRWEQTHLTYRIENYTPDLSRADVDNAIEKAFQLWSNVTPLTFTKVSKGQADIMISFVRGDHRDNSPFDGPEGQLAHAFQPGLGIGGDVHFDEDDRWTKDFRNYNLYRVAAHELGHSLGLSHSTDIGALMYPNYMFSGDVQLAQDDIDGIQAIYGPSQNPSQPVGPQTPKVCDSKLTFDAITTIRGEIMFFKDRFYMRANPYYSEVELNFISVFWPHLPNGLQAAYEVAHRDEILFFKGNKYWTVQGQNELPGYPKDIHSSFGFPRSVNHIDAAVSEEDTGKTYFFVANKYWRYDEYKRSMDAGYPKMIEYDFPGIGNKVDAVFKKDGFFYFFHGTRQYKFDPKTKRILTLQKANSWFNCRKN

As for `COC(=O)[C@H](C)NC(=O)[C@H](Cc1c[nH]c2ccccc12)NC(=O)[C@H](CC(C)C)NC(C)P(=O)(O)O` (stereo partly drawn) [Example E1, N-[N-[N-(1-Phosphonoethyl)-leucyl]-(S)-tryptophyl]-(S)-alanine, methyl ester], inhibition was half-maximal at 2400 nM (IC50).

As for `COC(=O)[C@H](C)NC(=O)[C@H](Cc1ccc(OC)cc1)NC(=O)[C@H](CC(C)C)NC(C)P(=O)(O)O` (stereo partly drawn) [Example E2, N-[N-[N-(1-Phosphonoethyl)-leucyl]-O-methyl-(S)-tyrosyl]-(S)-alanine, methyl ester], it took 3100 nM to reach half-maximal inhibition (IC50).
